Experiments:
NCI-H23 = experiment: Growth inhibition of human NCI-H23 cells assessed as cell growth at 1 uM incubated for 48 hrs by sulforhodamine B assay relative to control; type: functional; details: NCI-H23, 48 h, read-out: Activity
SK-OV-3 = experiment: Growth inhibition of human SKOV3 cells incubated for 48 hrs by sulforhodamine B assay; type: functional, cell-based; details: SK-OV-3, 48 h
HL-60(TB) = experiment: Growth inhibition of human HL-60(TB) cells assessed as cell growth at 0.1 uM incubated for 48 hrs by sulforhodamine B assay relative to control; type: functional; details: HL-60, 48 h, read-out: Activity
SK-MEL-5 = experiment: Growth inhibition of human SK-MEL-5 cells assessed as cell growth at 0.1 uM incubated for 48 hrs by sulforhodamine B assay relative to control; type: functional; details: SK-MEL-5, 48 h, read-out: Activity
SW-620 [1] = experiment: Growth inhibition of human SW620 cells incubated for 48 hrs by sulforhodamine B assay; type: functional, cell-based; details: SW-620, 48 h
DU-145 [2] = experiment: Growth inhibition of human DU145 cells assessed as cell growth at 0.1 uM incubated for 48 hrs by sulforhodamine B assay relative to control; type: functional; details: DU-145, 48 h, read-out: Activity
OVCAR-5 [3] = experiment: Growth inhibition of human OVCAR5 cells assessed as cell growth at 1 uM incubated for 48 hrs by sulforhodamine B assay relative to control; type: functional; details: OVCAR-5, 48 h, read-out: Activity
SW-620 [4] = experiment: Growth inhibition of human SW620 cells assessed as cell growth at 0.1 uM incubated for 48 hrs by sulforhodamine B assay relative to control; type: functional; details: SW-620, 48 h, read-out: Activity
HOP-62 [5] = experiment: Growth inhibition of human HOP62 cells assessed as cell growth at 100 uM incubated for 48 hrs by sulforhodamine B assay relative to control; type: functional; details: HOP-62, 48 h, read-out: Activity
M14 = experiment: Growth inhibition of human M14 cells assessed as cell growth at 1 uM incubated for 48 hrs by sulforhodamine B assay relative to control; type: functional; details: M14, 48 h, read-out: Activity
Malme-3M = experiment: Growth inhibition of human MALME-3M cells assessed as cell growth at 1 uM incubated for 48 hrs by sulforhodamine B assay relative to control; type: functional; details: read-out: Activity
CCRF-CEM [6] = experiment: Growth inhibition of human CCRF-CEM cells assessed as cell growth at 0.1 uM incubated for 48 hrs by sulforhodamine B assay relative to control; type: functional; details: read-out: Activity
NCI-H522 [7] = experiment: Growth inhibition of human NCI-H522 cells assessed as cell growth at 100 uM incubated for 48 hrs by sulforhodamine B assay relative to control; type: functional; details: NCI-H522, 48 h, read-out: Activity
OVCAR-8 = experiment: Growth inhibition of human OVCAR8 cells assessed as cell growth at 1 uM incubated for 48 hrs by sulforhodamine B assay relative to control; type: functional; details: OVCAR-8, 48 h, read-out: Activity
HCC 2998 = experiment: Growth inhibition of human HCC2998 cells assessed as cell growth at 0.01 uM incubated for 48 hrs by sulforhodamine B assay relative to control; type: functional; details: HCC 2998, 48 h, read-out: Activity
HT-29 = experiment: Growth inhibition of human HT-29 cells assessed as cell growth at 0.01 uM incubated for 48 hrs by sulforhodamine B assay relative to control; type: functional; details: HT-29, 48 h, read-out: Activity
OVCAR-4 = experiment: Growth inhibition of human OVCAR4 cells incubated for 48 hrs by sulforhodamine B assay; type: functional, cell-based; details: OVCAR-4, 48 h
RXF 393 = experiment: Growth inhibition of human RXF393 cells assessed as cell growth at 100 uM incubated for 48 hrs by sulforhodamine B assay relative to control; type: functional; details: RXF 393, 48 h, read-out: Activity
HOP-62 [8] = experiment: Growth inhibition of human HOP62 cells assessed as cell growth at 0.1 uM incubated for 48 hrs by sulforhodamine B assay relative to control; type: functional; details: HOP-62, 48 h, read-out: Activity
SK-MEL-2 = experiment: Growth inhibition of human SK-MEL-2 cells assessed as cell growth at 100 uM incubated for 48 hrs by sulforhodamine B assay relative to control; type: functional; details: SK-MEL-2, 48 h, read-out: Activity
KM12 = experiment: Growth inhibition of human KM12 cells assessed as cell growth at 0.01 uM incubated for 48 hrs by sulforhodamine B assay relative to control; type: functional; details: KM12, 48 h, read-out: Activity
NCI-H522 [9] = experiment: Growth inhibition of human NCI-H522 cells assessed as cell growth at 0.01 uM incubated for 48 hrs by sulforhodamine B assay relative to control; type: functional; details: NCI-H522, 48 h, read-out: Activity
OVCAR-5 [10] = experiment: Growth inhibition of human OVCAR5 cells assessed as cell growth at 0.1 uM incubated for 48 hrs by sulforhodamine B assay relative to control; type: functional; details: OVCAR-5, 48 h, read-out: Activity
SW-620 [11] = experiment: Growth inhibition of human SW620 cells assessed as cell growth at 1 uM incubated for 48 hrs by sulforhodamine B assay relative to control; type: functional; details: SW-620, 48 h, read-out: Activity
LOX IMVI = experiment: Growth inhibition of human LOXIMVI cells assessed as cell growth at 100 uM incubated for 48 hrs by sulforhodamine B assay relative to control; type: functional; details: read-out: Activity
HCT-15 = experiment: Growth inhibition of human HCT15 cells assessed as cell growth at 0.01 uM incubated for 48 hrs by sulforhodamine B assay relative to control; type: functional; details: HCT-15, 48 h, read-out: Activity
SF-268 = experiment: Growth inhibition of human SF268 cells assessed as cell growth at 0.1 uM incubated for 48 hrs by sulforhodamine B assay relative to control; type: functional; details: SF-268, 48 h, read-out: Activity
TK-10 = experiment: Growth inhibition of human TK10 cells assessed as cell growth at 10 uM incubated for 48 hrs by sulforhodamine B assay relative to control; type: functional; details: TK-10, 48 h, read-out: Activity
CCRF-CEM [12] = experiment: Growth inhibition of human CCRF-CEM cells assessed as cell growth at 1 uM incubated for 48 hrs by sulforhodamine B assay relative to control; type: functional; details: read-out: Activity
SF-539 = experiment: Growth inhibition of human SF539 cells assessed as cell growth at 1 uM incubated for 48 hrs by sulforhodamine B assay relative to control; type: functional; details: SF-539, 48 h, read-out: Activity
NCI/ADR-RES = experiment: Growth inhibition of human NCI/ADR-RES cells assessed as cell growth at 0.01 uM incubated for 48 hrs by sulforhodamine B assay relative to control; type: functional; details: read-out: Activity
DU-145 [13] = experiment: Growth inhibition of human DU145 cells assessed as cell growth at 100 uM incubated for 48 hrs by sulforhodamine B assay relative to control; type: functional; details: DU-145, 48 h, read-out: Activity
[14] = read-out: LC50 (the source's name)
[15] = read-out: pLC50 (the source's name) (converted)

COc1cc(Cl)cc(-c2nn(-c3cccc(NC(=O)Nc4ccc(Cl)c(C(F)(F)F)c4)c3)cc2-c2ccncc2)c1
growth at 1 µM (NCI-H23): 60%
GI50 (SK-OV-3; read-out: GI50): 3.15 µM
CC50 (SK-OV-3; [14]): > 100 µM
TGI (SK-OV-3; read-out: TGI): 95.5 µM
GI50 (SK-OV-3; read-out: pGI50 (converted)): 3.16 µM
CC50 (SK-OV-3; [15]): > 100 µM
TGI (SK-OV-3; read-out: pTGI (converted)): 11.7 µM
growth at 0.1 µM (HL-60(TB)): 91%
growth at 0.1 µM (SK-MEL-5): 98%
GI50 (SW-620 [1]; read-out: GI50): 1.51 µM
LC50 (SW-620 [1]; read-out: LC50): 5.78 µM
TGI (SW-620 [1]; read-out: TGI): 10.5 µM
GI50 (SW-620 [1]; read-out: pGI50 (converted)): 1.62 µM
LC50 (SW-620 [1]; read-out: pLC50 (converted)): 57.5 µM
TGI (SW-620 [1]; read-out: pTGI (converted)): 10.5 µM
growth at 0.1 µM (DU-145 [2]): 98%
growth at 1 µM (OVCAR-5 [3]): 81%
growth at 0.1 µM (SW-620 [4]): 96%
growth at 100 µM (HOP-62 [5]): -48%
growth at 1 µM (M14): 65%
growth at 1 µM (Malme-3M): 67%
growth at 0.1 µM (CCRF-CEM [6]): 97%
growth at 100 µM (NCI-H522 [7]): -66%
growth at 1 µM (OVCAR-8): 43%
growth at 0.01 µM (HCC 2998): 95%
growth at 0.01 µM (HT-29): 101%
GI50 (OVCAR-4; read-out: GI50): 1.53 µM
CC50 (OVCAR-4; [14]): > 100 µM
TGI (OVCAR-4; read-out: TGI): 25.5 µM
GI50 (OVCAR-4; read-out: pGI50 (converted)): 1.82 µM
CC50 (OVCAR-4; [15]): > 100 µM
TGI (OVCAR-4; read-out: pTGI (converted)): 2.63 µM
growth at 100 µM (RXF 393): -58%
growth at 0.1 µM (HOP-62 [8]): 104%
growth at 100 µM (SK-MEL-2): -85%
growth at 0.01 µM (KM12): 95%
growth at 0.01 µM (NCI-H522 [9]): 93%
growth at 0.1 µM (OVCAR-5 [10]): 73%
growth at 1 µM (SW-620 [11]): 63%
growth at 100 µM (LOX IMVI): -34%
growth at 0.01 µM (HCT-15): 92%
growth at 0.1 µM (SF-268): 90%
growth at 10 µM (TK-10): 37.5%
growth at 1 µM (CCRF-CEM [12]): 37%
growth at 1 µM (SF-539): 75%
growth at 0.01 µM (NCI/ADR-RES): 98%
growth at 100 µM (DU-145 [13]): -71%

O=C(Nc1cccc(-n2cc(-c3ccncc3)c(-c3cc(O)cc(Cl)c3)n2)c1)Nc1ccc(Cl)c(Cl)c1
growth at 1 µM (NCI-H23): 96%
GI50 (SK-OV-3; read-out: GI50): 3.42 µM
CC50 (SK-OV-3; [14]): > 100 µM
TGI (SK-OV-3; read-out: TGI): 94.3 µM
GI50 (SK-OV-3; read-out: pGI50 (converted)): 3.39 µM
CC50 (SK-OV-3; [15]): > 100 µM
TGI (SK-OV-3; read-out: pTGI (converted)): 9.33 µM
growth at 0.1 µM (HL-60(TB)): 100%
growth at 0.1 µM (SK-MEL-5): 92%
GI50 (SW-620 [1]; read-out: GI50): 3.22 µM
LC50 (SW-620 [1]; read-out: LC50): > 100 µM
TGI (SW-620 [1]; read-out: TGI): 99.7 µM
GI50 (SW-620 [1]; read-out: pGI50 (converted)): 3.24 µM
LC50 (SW-620 [1]; read-out: pLC50 (converted)): > 100 µM
TGI (SW-620 [1]; read-out: pTGI (converted)): 10 µM
growth at 0.1 µM (DU-145 [2]): 104%
growth at 1 µM (OVCAR-5 [3]): 56%
growth at 0.1 µM (SW-620 [4]): 99%
growth at 100 µM (HOP-62 [5]): -3%
growth at 1 µM (M14): 72%
growth at 1 µM (Malme-3M): 76%
growth at 0.1 µM (CCRF-CEM [6]): 95%
growth at 100 µM (NCI-H522 [7]): -55%
growth at 1 µM (OVCAR-8): 56%
growth at 0.01 µM (HCC 2998): 104%
growth at 0.01 µM (HT-29): 91%
GI50 (OVCAR-4; read-out: GI50): 2.9 µM
CC50 (OVCAR-4; [14]): > 100 µM
GI50 (OVCAR-4; read-out: pGI50 (converted)): 2.95 µM
CC50 (OVCAR-4; [15]): > 100 µM
growth at 100 µM (RXF 393): -52%
growth at 0.1 µM (HOP-62 [8]): 97%
growth at 100 µM (SK-MEL-2): -52%
growth at 0.01 µM (KM12): 102%
growth at 0.01 µM (NCI-H522 [9]): 88%
growth at 0.1 µM (OVCAR-5 [10]): 90%
growth at 1 µM (SW-620 [11]): 102%
growth at 100 µM (LOX IMVI): -38%
growth at 0.01 µM (HCT-15): 59%
growth at 0.1 µM (SF-268): 98%
growth at 1 µM (CCRF-CEM [12]): 76%
growth at 1 µM (SF-539): 72%
growth at 0.01 µM (NCI/ADR-RES): 109%
growth at 100 µM (DU-145 [13]): -31%
